From ChEMBL document CHEMBL1201862, “PubChem BioAssay data set” (2004)
Active and inactive are the calls of the source.

How the values were obtained:
[1] = biological target: Induced myeloid leukemia cell differentiation protein Mcl-1 (Homo sapiens, UniProt Q07820); assay type: functional
[2] = biological target: DNA dC->dU-editing enzyme APOBEC-3A (Homo sapiens, UniProt P31941); assay: Dose Response confirmation of small molecule APOBEC3A DNA Deaminase Inhibitors via a fluorescence-based single-stranded DNA deaminase assay. [Related pubchem assays (depositor defined):AID493011, AID493024]; assay type: functional
[3] = biological target: DNA dC->dU-editing enzyme APOBEC-3G (Homo sapiens, UniProt Q9HC16); assay type: functional;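 also: Dose-response counterscreen measuring inhibition of APOBEC3G DNA deaminase activity, run while confirming APOBEC3A inhibitors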
[4] = ZM109 Env clade C HIV-1 fusion inhibitors, dose response, HeLa effector, CEM target cells, luciferase, cherry-pick (AID 652058); assay type: functional, cell-based
[5] = inhibitors of clade B AD8 Env fusion, dose response, cell-based, cherry-pick (AID 652062); assay type: functional;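 also: luciferase signal from cell-cell fusion driven by HIV-1 clade B AD8 Env; potency is for inhibitors of fusion seen as a drop in luminescence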
[6] = inhibitors of HIV Env-driven cell fusion, dose response, cherry-pick (AID 652057); assay type: functional, cell-based
[7] = off-target signal loss in HeLa-CEM21 co-culture – HeLa F-luc CTL cells, cherry-picked, counter-screen for HIV-1 Env fusion inhibitor project, dose response (AID 652040); assay type: functional, cell-based;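 also: potency for signal decrease marking cytotoxic or nonspecific inhibition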
[8] = HEp-2 cell cytotoxicity, dose response, cytotoxicity control for RSV inhibitor project, HTS (AID 2410); assay type: functional; details: human respiratory syncytial virus
[9] = biological target: Eukaryotic translation initiation factor 4E (Mus musculus, UniProt P63073); assay: eIF4E–eIF4G protein interaction inhibitors, dose response, biochemical, TR-FRET (AID 855); assay type: functional;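 also: potency for disrupting eIF4E binding to eIF4GI seen as loss of FRET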
[10] = biological target: T1, Estrogen receptor (Homo sapiens, UniProt P03372);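 also: potency for inhibiting coactivator peptide recruitment to the receptor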
T1 sequence (P03372 whole entry): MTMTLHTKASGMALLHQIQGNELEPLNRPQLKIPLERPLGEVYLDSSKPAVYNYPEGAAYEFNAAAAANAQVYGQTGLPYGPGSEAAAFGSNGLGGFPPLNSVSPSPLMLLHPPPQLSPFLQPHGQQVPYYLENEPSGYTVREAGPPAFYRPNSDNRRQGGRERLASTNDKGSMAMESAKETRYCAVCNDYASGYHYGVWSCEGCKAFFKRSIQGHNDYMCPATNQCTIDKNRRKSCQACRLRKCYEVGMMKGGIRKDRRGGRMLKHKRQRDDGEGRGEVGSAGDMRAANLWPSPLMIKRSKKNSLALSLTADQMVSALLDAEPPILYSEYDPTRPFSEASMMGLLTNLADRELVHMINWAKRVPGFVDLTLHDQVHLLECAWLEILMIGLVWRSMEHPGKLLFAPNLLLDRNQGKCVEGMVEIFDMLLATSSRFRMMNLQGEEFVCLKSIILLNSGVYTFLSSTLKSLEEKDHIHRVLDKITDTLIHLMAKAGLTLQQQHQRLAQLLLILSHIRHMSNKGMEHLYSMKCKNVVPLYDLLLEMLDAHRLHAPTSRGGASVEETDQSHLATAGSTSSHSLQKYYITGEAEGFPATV

[11] = biological target: T2, COUP transcription factor 2 (Homo sapiens, UniProt P24468); assay: Luminescence-based cell-based high throughput dose response assay to identify inhibitors of COUP-TFII (NR2F2).; assay type: functional;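 also: HEK293 cells transiently cotransfected with COUP-TFII expression vector and reporter; luciferase reporter luminescence driven by COUP-TFII from the pX2-168 reporter plasmid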
T2 sequence (P24468 whole entry): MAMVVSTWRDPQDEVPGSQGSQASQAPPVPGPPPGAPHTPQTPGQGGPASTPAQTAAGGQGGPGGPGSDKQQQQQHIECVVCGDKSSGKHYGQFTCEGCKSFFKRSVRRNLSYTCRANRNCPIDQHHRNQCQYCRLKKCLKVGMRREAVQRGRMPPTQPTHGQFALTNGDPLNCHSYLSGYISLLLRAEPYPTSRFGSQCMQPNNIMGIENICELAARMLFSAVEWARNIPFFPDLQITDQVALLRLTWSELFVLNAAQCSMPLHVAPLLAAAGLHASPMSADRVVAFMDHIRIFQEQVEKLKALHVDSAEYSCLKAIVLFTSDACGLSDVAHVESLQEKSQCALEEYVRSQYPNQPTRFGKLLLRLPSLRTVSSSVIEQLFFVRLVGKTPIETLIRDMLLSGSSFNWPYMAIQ

[12] = biological target: T3, Mannose-6-phosphate isomerase (Homo sapiens, UniProt P34949); assay: human PMI inhibitors, high substrate, primary screen, biochemical, fluorescence intensity, high mannose 6-phosphate (AID 1220)
T3 sequence (P34949 whole entry): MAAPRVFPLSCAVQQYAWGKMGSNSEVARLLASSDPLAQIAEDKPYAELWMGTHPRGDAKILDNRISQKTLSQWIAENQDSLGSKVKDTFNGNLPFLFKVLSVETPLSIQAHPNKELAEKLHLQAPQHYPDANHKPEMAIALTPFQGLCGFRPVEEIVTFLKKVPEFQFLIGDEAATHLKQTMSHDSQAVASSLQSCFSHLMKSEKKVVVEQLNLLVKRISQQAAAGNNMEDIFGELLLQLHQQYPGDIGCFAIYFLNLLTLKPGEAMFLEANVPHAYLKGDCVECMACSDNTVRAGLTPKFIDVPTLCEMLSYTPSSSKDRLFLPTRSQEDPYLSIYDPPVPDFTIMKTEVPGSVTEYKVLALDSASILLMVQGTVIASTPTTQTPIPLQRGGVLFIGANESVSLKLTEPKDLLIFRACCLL

[13] = biological target: Nonstructural protein 1 (Influenza A virus, UniProt Q194T2); assay type: functional, Influenza A virus (A/California/07/2009(H1N1))
[14] = cytotoxicity toward NIH3T3 fibroblasts, dose response, counter-screen, cell-based, ATP luminescence, mouse fibroblasts (AID 2010); assay type: functional;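 also: cells exposed to compound for about 90 hours before reading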
[15] = inhibitors of intracellular T. cruzi replication, confirmation, NIH3T3 host cells, beta-gal luminescence (AID 2044); assay type: functional, cell-based;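 also: intracellular parasites grown in NIH/3T3 mouse fibroblasts as host cells; luminescent beta-galactosidase reporter signal from transgenic T. cruzi replicating inside host cells; inhibitors lower the luminescence signal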
[16] = biological target: Prothrombin (Homo sapiens, UniProt P00734); assay: Thrombin 1536 HTS Dose Response Confirmation. [Related pubchem assays: 1046 (Thrombin 1536 HTS; hits were confirmed in this assay)]; assay type: functional
[17] = Jurkat T cell cytotoxicity, dose response, cytotoxicity control for P. falciparum gametocyte viability project, luminescence (AID 1117277); assay type: functional, cell-based;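 also: potency reflects loss of cellular ATP meaning fewer viable cells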
[18] = P. falciparum late gametocyte killing, dose response, luminescence (AID 1117278); assay type: functional, cell-based;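 also: gametocytes exposed to compound for 24 hours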

Sequence of Induced myeloid leukemia cell differentiation protein Mcl-1 (Q07820 whole entry): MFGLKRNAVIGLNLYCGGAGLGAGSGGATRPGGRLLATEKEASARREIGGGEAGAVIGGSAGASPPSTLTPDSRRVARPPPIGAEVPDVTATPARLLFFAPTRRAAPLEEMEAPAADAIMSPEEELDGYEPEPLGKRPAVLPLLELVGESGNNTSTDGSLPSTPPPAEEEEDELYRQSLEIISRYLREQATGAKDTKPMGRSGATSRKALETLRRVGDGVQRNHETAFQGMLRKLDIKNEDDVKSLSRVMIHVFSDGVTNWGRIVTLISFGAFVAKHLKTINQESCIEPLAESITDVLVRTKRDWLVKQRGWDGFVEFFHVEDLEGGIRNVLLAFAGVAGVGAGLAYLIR
Sequence of DNA dC->dU-editing enzyme APOBEC-3G (Q9HC16 whole entry, the tested form may be a part): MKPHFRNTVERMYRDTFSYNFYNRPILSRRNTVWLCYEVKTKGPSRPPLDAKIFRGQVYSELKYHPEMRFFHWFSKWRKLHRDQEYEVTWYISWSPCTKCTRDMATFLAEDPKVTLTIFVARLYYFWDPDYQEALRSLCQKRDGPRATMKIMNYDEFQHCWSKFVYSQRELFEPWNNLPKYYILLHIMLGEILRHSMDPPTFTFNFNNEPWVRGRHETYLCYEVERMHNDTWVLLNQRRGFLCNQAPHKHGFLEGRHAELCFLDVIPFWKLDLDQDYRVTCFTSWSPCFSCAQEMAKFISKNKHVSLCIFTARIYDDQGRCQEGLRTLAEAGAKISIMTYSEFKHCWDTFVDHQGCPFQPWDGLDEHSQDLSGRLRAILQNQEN
Sequence of DNA dC->dU-editing enzyme APOBEC-3A (P31941 whole entry): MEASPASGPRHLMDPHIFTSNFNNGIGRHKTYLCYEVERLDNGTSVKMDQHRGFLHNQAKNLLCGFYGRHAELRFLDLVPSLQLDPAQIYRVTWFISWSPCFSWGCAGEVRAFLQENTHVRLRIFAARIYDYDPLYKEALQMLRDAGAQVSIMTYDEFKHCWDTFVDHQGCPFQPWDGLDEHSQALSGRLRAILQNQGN
Sequence of Eukaryotic translation initiation factor 4E (P63073 whole entry): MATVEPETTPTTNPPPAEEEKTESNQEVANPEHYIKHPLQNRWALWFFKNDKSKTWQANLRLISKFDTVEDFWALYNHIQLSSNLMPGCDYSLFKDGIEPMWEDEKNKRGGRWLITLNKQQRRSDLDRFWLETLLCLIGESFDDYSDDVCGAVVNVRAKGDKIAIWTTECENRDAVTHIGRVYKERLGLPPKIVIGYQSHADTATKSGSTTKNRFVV
Sequence of Nonstructural protein 1 (Q194T2 whole entry): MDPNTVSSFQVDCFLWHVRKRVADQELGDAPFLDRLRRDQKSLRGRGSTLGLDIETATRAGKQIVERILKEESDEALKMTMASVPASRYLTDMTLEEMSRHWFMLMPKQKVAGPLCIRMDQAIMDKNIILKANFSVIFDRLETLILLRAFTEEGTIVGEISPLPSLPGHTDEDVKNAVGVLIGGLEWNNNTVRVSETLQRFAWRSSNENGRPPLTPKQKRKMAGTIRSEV

For CCOC(=O)C1=C(Nc2ccc(OC)cc2)S/C(=C\c2cc(OC)c(O)c(OC)c2)C1=O, the IC50 [1] was 4.24 µM (not active).
With COc1cc(/C=C(/C#N)C(=O)NCCCc2ccccc2)ccc1OCC(=O)O the IC50 [2] was 1.61 µM (active) and the IC50 [3] was 3.23 µM (active).
For O=C(CCC(=O)N1CCN(S(=O)(=O)c2ccc3ccccc3c2)CC1)Nc1cc(Cl)cc(Cl)c1, the AC50 [4] was 4.28 µM (active), the AC50 [5] was 14.2 µM (active) and the AC50 [6] was 3.61 µM (active). The AC50 [7] was 6.16 µM (active) and the CC50 [8] was > 6.25 µM (active).
With Cc1ccc(CNC(=O)c2ccc(-n3cccc3)cc2)cc1 the IC50 [9] was 50 µM (inactive) and the IC50 [1] was 3.27 µM (active).
In the case of CC(=O)NCCOC(=O)Nc1ccncc1, the IC50 [10] is reported as > 50 µM (not active).
For Cc1ccc(-n2nc3c(=O)n(C(C)C(=O)NCCC4=CCCCC4)nc(C)c3c2C)cc1 (stereo unspecified), the IC50 [11] was 6.62 µM (active).
In the case of CCC(C)N1C(=O)NC(=O)C2(Cc3c(ccc4ccccc34)N(C)C2)C1=O (stereo unspecified), the IC50 [12] is reported as > 50 µM (not active).
With N#C/C(=C\C1=C(N2CCOCC2)C(=C\c2ccccc2)/CC1)C(=O)Nc1ccccc1F the IC50 [13] was 13.3 µM (active), the EC50 [14] was > 60 µM (not active) and the EC50 [15] was 1.01 µM (active).
With CS(=O)(=O)Nc1cccc(C(=O)CC2(O)C(=O)Nc3ccc(Br)cc32)c1 (stereo unspecified) the IC50 [16] was 0.525 µM (active).
For S=C(Nc1ccc2c[nH]nc2c1)Nc1ccc(Cl)cc1Cl, the IC50 [12] was > 50 µM (not active).
With Cc1ccc(C(=O)NC(C)C(c2cccs2)N2CCCC2)s1 (stereo unspecified) the IC50 [17] was > 83.3 µM (inactive), the IC50 [16] was > 50 µM (not active) and the IC50 [18] was > 109 µM (inactive).
For COc1ccc(OC)c(NS(=O)(=O)c2ccc(NC(C)=O)cc2)c1, the IC50 [17] was > 83.3 µM (inactive) and the IC50 [18] was > 109 µM (inactive).
In the case of CCN1C(NCC2CC2)=N[C@@H](c2cccc(C(F)(F)F)c2)C(C(=O)OC)=C1C, the IC50 [2] is reported as 4.22 µM (active) and the IC50 [3] is reported as 6.71 µM (active).
In the case of Cc1ccc(Cl)cc1NS(=O)(=O)c1c(C)[nH]c(=O)[nH]c1=O, the IC50 [16] is reported as > 50 µM (not active).
